US11045457B2, “Piperidinyl-3-(aryloxy)propanamides and propanoates” (priority 2018, dated 2021)

Tests used:
SSTR4 [1] = target: T1, SSTR4 (Homo sapiens (Human), UniProt P31391); experiment: Inhibition of forskolin stimulated cAMP in CHO-K1 cells overexpressing SSTR4; type: cell-based; conditions: for EC50: read-out: SSTR4 Activity pEC50 (converted)
Method in brief: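 Read-out is a HTRF LANCE Ultra cAMP competition using Eu-labelled streptavidin and biotin-cAMP, incubated 60 min at room temperature. It followed a 30 min room-temperature exposure of Kreb's Ringer-washed cells to compound plus forskolin. Potency is expressed as pEC50.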

SSTR4 [2] = target: T1, SSTR4; experiment: SSTR4 I-125 somatostatin competition binding assay (membranes from CHO-K1 cells overexpressing SSTR4); conditions: competition with I-125 labeled somatostatin; for IC50: read-out: SSTR4 Binding pIC50 (converted)
SSTR1 = SSTR1 (Homo sapiens (Human), UniProt P30872); experiment: SSTR1 I-125 somatostatin competition binding assay for selectivity versus SSTR4 (membranes from CHO-K1 cells overexpressing SSTR1); conditions: for SSTR1 Binding pIC50: competition with I-125 labeled somatostatin, CHO-K1 SSTR1 membranes;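 on all read-outs here: Filter-based radioligand binding, bound label counted by scintillation after 60 min incubation at room temperature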
SSTR1, sequence (P30872 whole entry): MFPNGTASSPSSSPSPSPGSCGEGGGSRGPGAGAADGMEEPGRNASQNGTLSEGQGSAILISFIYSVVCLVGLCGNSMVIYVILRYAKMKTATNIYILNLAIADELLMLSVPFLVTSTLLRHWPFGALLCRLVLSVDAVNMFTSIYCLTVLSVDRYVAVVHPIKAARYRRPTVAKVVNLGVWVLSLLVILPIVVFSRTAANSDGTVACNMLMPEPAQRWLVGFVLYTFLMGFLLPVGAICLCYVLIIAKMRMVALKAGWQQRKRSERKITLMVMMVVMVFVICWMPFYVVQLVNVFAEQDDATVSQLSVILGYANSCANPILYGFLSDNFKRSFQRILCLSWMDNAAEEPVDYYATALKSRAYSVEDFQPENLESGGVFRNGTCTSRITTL

T1 sequence (P31391 whole entry): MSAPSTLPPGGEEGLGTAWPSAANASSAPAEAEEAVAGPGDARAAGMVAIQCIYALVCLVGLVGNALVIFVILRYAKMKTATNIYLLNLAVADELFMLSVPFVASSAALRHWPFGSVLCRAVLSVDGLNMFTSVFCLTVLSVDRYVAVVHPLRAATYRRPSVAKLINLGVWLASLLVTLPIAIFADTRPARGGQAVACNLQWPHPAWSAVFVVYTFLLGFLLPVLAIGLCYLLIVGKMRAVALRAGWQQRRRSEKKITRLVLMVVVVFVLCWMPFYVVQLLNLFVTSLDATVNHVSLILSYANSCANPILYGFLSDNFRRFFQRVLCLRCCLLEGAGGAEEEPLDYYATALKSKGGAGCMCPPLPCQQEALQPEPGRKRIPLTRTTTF

SMILES	SSTR4 Activity pEC50 (SSTR4 [1])	SSTR4 Binding pIC50 (SSTR4 [2])	SSTR1 Binding pIC50 (SSTR1)	EC50 (SSTR4 [1])	IC50 (SSTR4 [2])	IC50 (SSTR1)
CN1CCC(NC(=O)C(C)(C)COc2ncccc2C(F)(F)F)C2(CC2)C1 (stereo not drawn) [Example 114, 2,2-dimethyl-N-(5-methyl-5-azaspiro[2.5]octan-8-yl)-3-((3-(trifluoromethyl)pyridin-2-yl)oxy)propanamide]	8.0	6.9	4.6	–	–	–
CN1C[C@H](NC(=O)C(C)(C)COc2ncccc2OC(F)(F)F)C2(CC2)C1 [Example 150, (R)-2,2-dimethyl-N-(5-methyl-5-azaspiro[2.4]heptan-7-yl)-3-((3-(trifluoromethoxy)pyridin-2-yl)oxy)propanamide]	8.2	7.3	5.6	–	–	–
CC(C)[C@@H]1CN(C)C[C@H]1NC(=O)C(C)(C)COc1ncccc1OC(F)(F)F (relative stereo) [Example 16, trans-N-(4-isopropyl-1-methylpyrrolidin-3-yl)-2,2-dimethyl-3-((3-(trifluoromethoxy)pyridin-2-yl)oxy)propanamide]	7.8	7.2	5.5	–	–	–
CN1CCC(NC(=O)C(C)(C)COc2ccccc2OC(F)(F)F)CC1 [Example 102, 2,2-dimethyl-N-(1-methylpiperidin-4-yl)-3-(2-(trifluoromethoxy)phenoxy)propanamide]	8.7	7.8	5.6	–	–	–
CC(C)[C@@H]1CN(C)C[C@H]1NC(=O)C(C)(C)COc1ncccc1C(F)(F)F (racemic) [Example 15, trans-N-(4-isopropyl-1-methylpyrrolidin-3-yl)-2,2-dimethyl-3-((3-(trifluoromethyl)pyridin-2-yl)oxy)propanamide]	–	–	–	20 nM	158 nM	3160 nM
C[C@@H]1CN(C)CC[C@H]1NC(=O)C(F)(F)COc1ncccc1OC(F)(F)F (racemic) [Example 200, N-(trans-1,3-dimethylpiperidin-4-yl)-2,2-difluoro-3-((3-(trifluoromethoxy)pyridin-2-yl)oxy)propanamide]	–	–	–	31.6 nM	126 nM	39800 nM
C[C@H]1CNCC[C@@H]1NC(=O)C(C)(C)COc1ccccc1Cl [Example 190, 3-(2-chlorophenoxy)-2,2-dimethyl-N-((3S,4S)-3-methylpiperidin-4-yl)propanamide]	9.8	7.6	5.3	–	–	–
Cc1ccccc1[C@@H]1CNCC[C@H]1N(C)C(=O)C(C)(C)COc1ncccc1C(F)(F)F (relative stereo) [Example 155, N,2,2-trimethyl-N-(trans-3-(o-tolyl)piperidin-4-yl)-3-((3-(trifluoromethyl)pyridin-2-yl)oxy)propanamide]	8.0	7.2	5.4	–	–	–
CN1CC(NC(=O)C(C)(C)COc2ncccc2C(F)(F)F)C2(CC2)C1 (stereo not drawn) [Example 138, 2,2-dimethyl-N-(5-methyl-5-azaspiro[2.4]heptan-7-yl)-3-((3-(trifluoromethyl)pyridin-2-yl)oxy)propanamide]	8.0	7.2	5.7	–	–	–
CN1C[C@@H](NC(=O)C(C)(C)COc2ncccc2C2CC2)[C@H](c2cnn(C)c2)C1 (relative stereo) [Example 22, trans-3-((3-cyclopropylpyridin-2-yl)oxy)-2,2-dimethyl-N-(1-methyl-4-(1-methyl-1H-pyrazol-4-yl)pyrrolidin-3-yl)propanamide]	7.9	7.0	6.0	–	–	–
Cc1ccccc1OCC(C)(C)C(=O)NC1CCN(C)CC1 [Example 76, 2,2-dimethyl-N-(1-methylpiperidin-4-yl)-3-(o-tolyloxy)propanamide]	7.7	6.7	4.7	–	–	–
